# Laboratory results as given in patent US10988466B2, “Heterocyclic derivatives useful as SHP2 inhibitors” (Jacobio Pharmaceuticals Co., Ltd., priority 2017, dated 2021).
# Target: T1, SHP2 (Homo sapiens, UniProt Q06124)
# T1 sequence (Q06124 1-593): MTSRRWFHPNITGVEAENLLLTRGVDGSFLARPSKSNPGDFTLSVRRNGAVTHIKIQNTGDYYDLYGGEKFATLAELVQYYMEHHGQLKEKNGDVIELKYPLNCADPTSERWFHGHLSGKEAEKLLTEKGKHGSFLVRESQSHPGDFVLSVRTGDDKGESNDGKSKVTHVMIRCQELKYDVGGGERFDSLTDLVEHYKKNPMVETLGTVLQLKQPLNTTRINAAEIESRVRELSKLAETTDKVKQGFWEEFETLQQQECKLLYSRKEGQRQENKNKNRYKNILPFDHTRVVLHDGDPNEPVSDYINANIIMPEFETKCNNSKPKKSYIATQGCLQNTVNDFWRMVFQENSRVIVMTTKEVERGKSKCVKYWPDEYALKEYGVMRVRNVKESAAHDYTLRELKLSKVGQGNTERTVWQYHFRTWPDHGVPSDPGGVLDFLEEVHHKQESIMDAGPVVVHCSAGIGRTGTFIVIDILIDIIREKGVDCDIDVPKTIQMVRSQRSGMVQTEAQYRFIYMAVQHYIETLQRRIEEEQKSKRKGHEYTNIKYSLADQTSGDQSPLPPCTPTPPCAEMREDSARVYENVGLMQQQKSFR
# Test: biochemical
# Settings: read-out: SHP2 inhibition (%)@0.1 μM
# 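Note: compounds preincubated 30 min at room temperature in the assay mixture, activity referenced to a 0.5% (v/v) DMSO control taken as 100%, run in triplicate.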
row,inhibition at 0.1 µM [%],SMILES
1,20,"Nc1nc(N2CCC3(CC2)c2ncccc2C[C@H]3N)cnc1Sc1ccnc(N)c1Cl [Example 4, (R)-1′-(6-amino-5-((2-amino-3-chloropyridin-4-yl)thio)pyrazin-2-yl)-5,6-dihydrospiro[cyclopenta[b]pyridine-7,4′-piperidin]-6-amine]"
2,66,"CC(=O)N1CC(F)(F)c2c(Sc3ncc(N4CCC5(CC4)c4ccccc4C[C@H]5N)nc3N)cccc21 [Example 6, (R)-1-(4-((3-amino-5-(2-amino-2,3-dihydrospiro[indene-1,4′-piperidin]-1′-yl)pyrazin-2-yl)thio)-3,3-difluoroindolin-1-yl)ethan-1-one]"
3,54,"Nc1nc(N2CCC3(CC2)Cc2cccnc2C[C@H]3N)cnc1Sc1ccnc(N)c1Cl [Example 9, (R)-1-(6-amino-5-((2-amino-3-chloropyridin-4-yl)thio)pyrazin-2-yl)-7,8′-dihydro-5′H-spiro [piperidine-4,6′-quinolin]-7′-amine]"
4,74,"COc1ccc2c(c1)CC1(CCN(c3cnc(Sc4ccnc(N)c4Cl)c(N)n3)CC1)[C@@H]2N [Example 11, (S)-1′-(6-amino-5-((2-amino-3-chloropyridin-4-yl)thio)pyrazin-2-yl)-5-methoxy-1,3-dihydrospiro [indene-2,4′-piperidin]-1-amine]"
5,83,"Nc1nc(N2CCC3(CC2)Cc2ccc(Cl)cc2[C@H]3N)cnc1Sc1ccnc(N)c1Cl [Example 15, (S)-1′-(6-amino-5-((2-amino-3-chloropyridin-4-yl)thio)pyrazin-2-yl)-6-chloro-1,3-dihydrospiro[indene-2,4′-piperidin]-1-amine]"
6,75,"N#Cc1cccc2c1CC1(CCN(c3cnc(Sc4ccnc(N)c4Cl)c(N)n3)CC1)[C@@H]2N [Example 16, (S)-1-amino-1′-(6-amino-5-((2-amino-3-chloropyridin-4-yl)thio)pyrazin-2-yl)-1,3-dihydrospiro [indene-2,4′-piperidine]-4-carbonitrile]"
7,35,"Nc1nc(N2CCC3(CC2)Cc2ccccc2[C@@H]3N)cnc1Sc1ccnc(N)c1Cl [Example 18, (R)-1′-(6-amino-5-((2-amino-3-chloropyridin-4-yl)thio)pyrazin-2-yl)-1,3-dihydrospiro[indene-2,4′-piperidin]-1-amine]"
8,86,COc1cc2c(cn1)[C@@H](N)C1(CCN(c3cnc(Sc4ccnc(N)c4Cl)c(N)n3)CC1)C2 [Example 20]
9,49,"Nc1nc(N2CCC3(CC2)Cc2ccncc2[C@H]3N)cnc1Sc1ccnc(N)c1Cl [Example 21, (S)-1′-(6-amino-5-((2-amino-3-chloropyridin-4-yl)thio)pyrazin-2-yl)-5,7-dihydrospiro[cyclopenta [c]pyridine-6,4′-piperidin]-7-amine]"
10,30,"Nc1nc(N2CCC3(CC2)Cc2cnccc2[C@H]3N)cnc1Sc1ccnc(N)c1Cl [Example 22, (S)-1′-(6-amino-5-((2-amino-3-chloropyridin-4-yl)thio)pyrazin-2-yl)-5,7-dihydrospiro [cyclopenta[c]pyridine-6,4′-piperidin]-5-amine]"
11,71,"Cc1ccc2c(c1)[C@@H](N)C1(CCN(c3cnc(Sc4ccnc(N)c4Cl)c(N)n3)CC1)C2 [Example 23, (S)-1′-(6-amino-5-((2-amino-3-chloropyridin-4-yl)thio)pyrazin-2-yl)-6-methyl-1,3-dihydro-spiro[indene-2,4′-piperidin]-1-amine]"
12,72,"C[S+]([O-])c1ccc2c(c1)[C@@H](N)C1(CCN(c3cnc(Sc4ccnc(N)c4Cl)c(N)n3)CC1)C2 (stereo partly drawn) [Example 25, (1S)-1′-(6-amino-5-((2-amino-3-chloropyridin-4-yl)thio)pyrazin-2-yl)-6-(methylsulfinyl)-1,3-dihydrospiro [indene-2,4′-piperidin]-1-amine]"
13,79,"CN(C)C(=O)c1ccc2c(c1)[C@@H](N)C1(CCN(c3cnc(Sc4ccnc(N)c4Cl)c(N)n3)CC1)C2 [Example 27, (S)-1-amino-1′-(6-amino-5-((2-amino-3-chloropyridin-4-yl)thio)pyrazin-2-yl)-N,N-dimethyl-1,3-dihydrospiro [indene-2,4′-piperidine]-6-carboxamide]"
14,75,"Nc1nc(N2CCC3(CC2)Cc2ccc(Br)cc2[C@H]3N)cnc1Sc1ccnc(N)c1Cl [Example 28, (S)-1′-(6-amino-5-((2-amino-3-chloropyridin-4-yl)thio)pyrazin-2-yl)-6-bromo-1,3-dihydro-spiro[indene-2,4′-piperidin]-1-amine]"
15,77,"Nc1nc(N2CCC3(CC2)Cc2c(Br)cccc2[C@H]3N)cnc1Sc1ccnc(N)c1Cl [Example 29, (S)-1′-(6-amino-5-((2-amino-3-chloropyridin-4-yl)thio)pyrazin-2-yl)-4-bromo-1,3-dihydro-spiro[indene-2,4′-piperidin]-1-amine]"
16,70,"Nc1nc(N2CCC3(CC2)Cc2c(ccc4ccccc24)[C@H]3N)cnc1Sc1ccnc(N)c1Cl [Example 31, (S)-1′-(6-amino-5-((2-amino-3-chloropyridin-4-yl)thio)pyrazin-2-yl)-1,3-dihydrospiro[cyclopenta [a]naphthalene-2,4′-piperidin]-3-amine]"
17,85,"COc1cc2c(cc1Cl)[C@@H](N)C1(CCN(c3cnc(Sc4ccnc(N)c4Cl)c(N)n3)CC1)C2 [Example 32, (S)-1′-(6-amino-5-((2-amino-3-chloropyridin-4-yl)thio)pyrazin-2-yl)-6-chloro-5-methoxy-1,3-dihydrospiro[indene-2,4′-piperidin]-1-amine]"
18,81,"Nc1ccc2c(c1)[C@@H](N)C1(CCN(c3cnc(Sc4ccnc(N)c4Cl)c(N)n3)CC1)C2 [Example 33, (S)-1′-(6-amino-5-((2-amino-3-chloropyridin-4-yl)thio)pyrazin-2-yl)-1,3-dihydrospiro[indene-2,4′-piperidine]-1,6-diamine]"
19,65,"Nc1nc(N2CCC3(CC2)Cc2ccc(-n4ccnc4)cc2[C@H]3N)cnc1Sc1ccnc(N)c1Cl [Example 36, (S)-1′-(6-amino-5-((2-amino-3-chloropyridin-4-yl)thio)pyrazin-2-yl)-6-(1H-imidazol-1-yl)-1,3-dihydrospiro [indene-2,4′-piperidin]-1-amine]"
20,76,"Nc1nc(N2CCC3(CC2)Cc2ccc(-n4cccc4)cc2[C@H]3N)cnc1Sc1ccnc(N)c1Cl [Example 37, (S)-1′-(6-amino-5-((2-amino-3-chloropyridin-4-yl)thio)pyrazin-2-yl)-6-(1H-pyrrol-1-yl)-1,3-dihydro-spiro[indene-2,4′-piperidin]-1-amine]"
21,75,"Nc1nc(N2CCC3(CC2)Cc2cc(F)c(Br)cc2[C@H]3N)cnc1Sc1ccnc(N)c1Cl [Example 38, (S)-1′-(6-amino-5-((2-amino-3-chloropyridin-4-yl)thio)pyrazin-2-yl)-6-bromo-5-fluoro-1,3-dihydrospiro[indene-2,4′-piperidin]-1-amine]"
22,67,"Nc1nc(N2CCC3(CC2)Cc2cc(F)c(F)cc2[C@H]3N)cnc1Sc1ccnc(N)c1Cl [Example 39, (S)-1′-(6-amino-5-((2-amino-3-chloropyridin-4-yl)thio)pyrazin-2-yl)-5,6-difluoro-1,3-dihydro-spiro[indene-2,4′-piperidin]-1-amine]"
23,74,"Nc1nc(N2CCC3(CC2)Cc2ccc(F)c(F)c2[C@H]3N)cnc1Sc1ccnc(N)c1Cl [Example 40, (S)-1′-(6-amino-5-((2-amino-3-chloropyridin-4-yl)thio)pyrazin-2-yl)-6,7-difluoro-1,3-dihydro-spiro[indene-2,4′-piperidin]-1-amine]"
24,69,"CP(C)(=O)c1cc2c(cc1F)CC1(CCN(c3cnc(Sc4ccnc(N)c4Cl)c(N)n3)CC1)[C@@H]2N [Example 41, (S)-(1-amino-1′-(6-amino-((2-amino-3-chloropyridin-4-yl)thio)pyrazin-2-yl)-5-fluoro-1,3-dihydrospiro[indene-2,4′-piperidin]-6-yl) dimethylphosphine oxide]"
25,49,"N#Cc1cc2c(cc1F)CC1(CCN(c3cnc(Sc4ccnc(N)c4Cl)c(N)n3)CC1)[C@@H]2N [Example 42, (S)-1-amino-1′-(6-amino-5-((2-amino-3-chloropyridin-4-yl)thio)pyrazin-2-yl)-5-fluoro-1,3-dihydro-spiro[indene-2, 4′-piperidine]-6-carbonitrile]"
26,79,"NC(=O)c1cc2c(cc1F)CC1(CCN(c3cnc(Sc4ccnc(N)c4Cl)c(N)n3)CC1)[C@@H]2N [Example 43, (S)-1-amino-1′-(6-amino-5-((2-amino-3-chloropyridin-4-yl)thio)pyrazin-2-yl)-5-fluoro-1,3-dihydro-spiro[indene-2, 4′-piperidine]-6-carboxamide]"
27,69,"NC(=O)Nc1ccc2c(c1)[C@@H](N)C1(CCN(c3cnc(Sc4ccnc(N)c4Cl)c(N)n3)CC1)C2 [Example 46, (S)-1-(1-amino-1′-(6-amino-5-((2-amino-3-chloropyridin-4-yl)thio)pyrazin-2-yl)-1,3-dihydrospiro [indene-2,4′-piperidin]-6-yl)urea]"
28,81,"Nc1nc(N2CCC3(CC2)Cc2cc(Br)ccc2[C@H]3N)cnc1Sc1ccnc(N)c1Cl [Example 47, (S)-1′-(6-amino-5-((2-amino-3-chloropyridin-4-yl)thio)pyrazin-2-yl)-5-bromo-1,3-dihydro-spiro[indene-2,4′-piperidin]-1-amine]"
